In series [1] the test system is retinal toxicity. Put plainly: Estimated retinal toxicity of long-term DHCQ therapy in humans. It counts as in vivo, human. The source says:
The estimated rate of retinal toxicity for long-term treatment with DHCQ is less than 50% of the currently reported rate for HCQ when used at a similar effective cumulative dose and over a similar time period. More specifically, as compared to the rates of retinal toxicity described by Marmor et al. for treatment with HCQ (Ophthalmology. 2011 February; 118(2):415-22), given a similar level of therapeutic activity and time period of dosing for both HCQ and DHCQ, DHCQ is estimated to provide less than 50% of retinal toxicity as compared to that with HCQ dosing. Thus, in patient populations analogous to that described by the […] and Marmor et al (Ophthalmology. 2011 February; 118(2):415-22) where the retinal toxicity rate approach 1% after 5 years, DHCQ therapy is estimated to reduce the retinal toxicity to less that 0.5% of treated individuals. Further, given conventional assumptions that retinal screening is justified as rates of toxicity approach 1%, the reduced cumulative rates of retinal toxicity associated with DHCQ therapy will substantially reduce the need for retinal toxicity screening to a single screening at 5 and 10 years, or entirely negate the need for screening.

In series [2] the test system is established EAE in SJL mice. Briefly: EAE mouse model for MS, treatment of established disease. It counts as in vivo. Conditions: for EAE clinical score (severity of established EAE): 100 mg/kg/day oral gavage from day 14, 50 mg/kg/day 8 days later; for EAE clinical score (severity of established EAE) / Inflammatory Foci Score in the parenchyma / Inflammatory Foci Score, total score / Inflammatory Foci Score in the meninges: vs vehicle; for Inflammatory Foci Score in the parenchyma / Inflammatory Foci Score, total score / Inflammatory Foci Score in the meninges: brain histology at termination; for Inflammatory Foci Score in the meninges: P<0.05 two-tailed T test. An excerpt: Experimental autoimmune encephalomyelitis (EAE), a mouse model for MS, was induced in SJL mice (n=10 per group) by immunization with proteolipid protein peptide 139-151 (PLP 139-151) in CFA. […] At the termination of the experiment, mice were sacrificed, and the brains harvested, fixed, sections histologically scored by a blinded examiner for the number of inflammatory foci in the meninges and parenchyma using an established “Inflammatory Foci Score” (Chang et al, Recovery from EAE is associated with decreased survival of encephalitogenic T cells in the CNS of B7-1/B7-2-deficient mice. European J. Immunology, 2003, 33(7):2022-32).

The subject of series [3] is experimental autoimmune encephalomyelitis (EAE) in SJL mice. Briefly: EAE mouse model for MS, prevention (treatment from immunization). Conditions: for EAE clinical score (development and severity): 100 mg/kg/day oral gavage from immunization, 50 mg/kg/day from day 8, vs vehicle or BDCQ, P<0.05. It counts as in vivo. The source says:
Experimental autoimmune encephalomyelitis (EAE), a mouse model for MS, was induced in SJL mice (n=10 per group) by immunization with proteolipid protein peptide 139-151 (PLP 139-151) in CFA. […] Starting on day 8, mice were scored daily for the severity of EAE.

Series [4] deals with collagen-induced arthritis (CIA) in DBA/1 mice. Briefly: Collagen-induced arthritis (CIA) mouse model for RA, treatment from first immunization. The format is in vivo. To be noted: 50 mg/kg/day oral gavage, 100 mg/kg/day loading day 14-21; vs vehicle, Mann Whitney U test P<0.05.
Series [5] deals with established high-fat diet-induced NASH in C57BL/6 mice. Briefly: High fat diet-induced NASH in mice, treatment of established disease. The format is in vivo, mouse. To be noted: 6 weeks; for steatosis percentage of whole area (liver histology): 10 mg/kg/day started after 2 weeks of high-fat diet; for steatosis percentage of whole area (liver histology) / serum ALT / serum AST: vs vehicle. On the procedure:
To evaluate the effect of DHCQ and HCQ on established NASH, C57BL/6 mice (8 per group) were fed a high-fat “western-style” diet (60% caloric content from fat; Taconic). Following initiation of the high-fat diet, after 2 weeks blood was drawn and analyzed for abnormal elevations in serum markers for NASH including AST and ALT. The AST and ALT became abnormally elevated following the initial 2 weeks of high-fat diet, and at that time treatment was initiated with HCQ (10 mg/kg/day), DHCQ (10 mg/kg/day), or vehicle control. After 6 weeks of treatment, mice were fasted and blood was collected for serum analysis and mice sacrificed for histologic analysis of liver pathology. FIG. 8A presents micrographs of representative liver tissue sections at both 10× and 20× magnification. […] AST and ALT levels in the collected serum were measured and 2-tailed T Tests used to compare levels between groups.

In series [6] the test system is ganglion cell layer (GCL) of the retina. Briefly: Retinal histology of mice dosed for 3 months. It counts as in vivo, mouse. Conditions: for number of cells (nuclei) in the GCL vs vehicle / nuclear shrinkage in the ganglion cell layer (GCL): 100 mg/kg/day, 3 months; for nuclear shrinkage in the ganglion cell layer (GCL): H&E. The source says: At the time of termination, the eyes from each treatment group were carefully microdissected to ensure the retina remained intact, the eye was fixed in formalin, and the fixed eye sectioned to visualize the retina. […] Representative images of H&E stained retinal sections are presented from each treatment group in FIG. 17.
Using the histologic and quantitative pathology methodology adapted from Shichiri, et al (Shichiri, et al, JBC. 2012, 287(4):2926-34. PMID 22147702), the H&E stained retinal sections were evaluated for number of nuclei in the ganglion cell layer (GCL) (FIG. 18). The graph presents quantitation of the number of nuclei in the GCL of the retina from the indicated treatment groups. The number of cells in the GCL of the retina for each treatment group was compared with the number of cells in vehicle-treated control by two-tailed T test.

The test system of a further series is human OA. Conditions: cited from earlier work.
Series [7] relates to retinal toxicity. Conditions: cited from earlier work.

Entries after “also recorded” stand apart in the source; their conditions may differ.

Regarding `CC(CCCNCCO)Nc1ccnc2cc(Cl)ccc12` (centres unmarked) [DHCQ, desethylhydroxychloroquine], the “estimated retinal toxicity rate in treated individuals after 5 years” value with retinal toxicity [1] (population where HCQ rate approaches 1% after 5 years) was under 0.5%. Also, the “estimated rate of retinal toxicity, as share of the reported rate for HCQ” value in the series on retinal toxicity [1] (similar effective cumulative dose and time period) was “less than 50%”. For the same molecule, in series [2], the “EAE clinical score (severity of established EAE)” value is “reducing the severity of EAE”; the “Inflammatory Foci Score in the parenchyma” value was “statistically reduced”; the “Inflammatory Foci Score, total score” value is on record as “statistically reduced”; the “Inflammatory Foci Score in the meninges” value is recorded as “statistically reduced”. In addition, the “therapeutic activity in established EAE compared to HCQ” value in series [2] (mouse, in vivo) is reported as “more robust therapeutic activity than treatment with HCQ”. The “EAE clinical score (development and severity)” value in series [3] is “prevented development of and reduced the severity of EAE”. The “EAE disease activity compared to HCQ treatment” value in series [3] (at several timepoints, P<0.05 Mann Whitney U test) is reported as “statistically superior activity”. Further, the “arthritis score (development of disease and disease activity)” value in series [4] is “statistically reduced development of disease and reduced disease activity; also recorded: statistically lower”. Besides, in series [5], the “steatosis percentage of whole area (liver histology)” value is listed as “statistically reduced the steatosis percentage”. In series [5] (10 mg/kg/day), the “AST and ALT compared to treatment with HCQ” value is “statistical reductions in the AST and ALT as compared to treatment with HCQ”; the “serum ALT” value was “statistically reduced abnormal elevations”; the “serum AST” value is reported as “statistically reduced abnormal elevations”. In series [6], the “number of cells (nuclei) in the GCL vs vehicle” value is given as “no reduction in the number of cells in the GCL” and the “nuclear shrinkage in the ganglion cell layer (GCL)” value was “No increase in nuclear shrinkage in the GCL”.
Take `CCN(CCO)CCCC(C)Nc1ccnc2cc(Cl)ccc12` (centres unmarked) [HCQ, hydroxychloroquine]: the “therapeutic benefit in erosive OA” value in the series with human OA (case series) is recorded as “trends towards therapeutic benefit”. Further, the “disease-modifying or pain-reducing activity in non-erosive OA” value with human OA (in vivo) was “has not demonstrated disease-modifying or pain-reducing activity”. Also, in series [2], the “EAE clinical score (severity of established EAE)” value is “reducing the severity of EAE”; the “Inflammatory Foci Score in the parenchyma” value was “trends towards reductions”; the “Inflammatory Foci Score, total score” value is on record as “trends towards reductions”; the “Inflammatory Foci Score in the meninges” value is “reduced”. Moreover, the “prevalence of retinal toxicity” value in the series on retinal toxicity [7] (conventional doses, 400 mg/day common) is reported as 6.8 users per 1,000. In the series on retinal toxicity [7] (in vivo), the “retinal toxicity after 5-7 years of use” value is recorded as about 1%, the “risk of retinal toxicity after 7 years of usage or 1000 grams of total exposure” value was 5 times higher and the “risk of retinal toxicity after about 7 years of treatment” value is given as “approximately 1%”. In addition, the “incidence of retinal toxicity after 5 years” value in the series on retinal toxicity [7] (treated humans, conventional doses) is on record as “approximately 1%”. Also, in series [3], the “EAE clinical score (development and severity)” value was “prevented development of and reduced the severity of EAE”. Moreover, the “arthritis score (development of disease and disease activity)” value in series [4] is “statistically reduced development of disease and reduced disease activity; also recorded: statistically lower”. Besides, in series [5], the “steatosis percentage of whole area (liver histology)” value is on record as “statistically reduced the steatosis percentage”. In series [5] (10 mg/kg/day), the “serum ALT” value is listed as “only exhibited a trend towards reduction” and the “serum AST” value is listed as “only exhibited a trend towards reduction”. Moreover, in series [6], the “number of cells (nuclei) in the GCL vs vehicle” value was “significantly lower” and the “nuclear shrinkage in the ganglion cell layer (GCL)” value was “increased nuclear shrinkage in the GCL”. The “retinal cell loss in GCL, HCQ compared to DHCQ” value in series [6] (P<0.05) was “statistically increased retinal cell loss”.

The values above are taken from patent US9931335B2, “Desethylhydroxychloroquine for the treatment of diseases associated with inflammation” (The Board of Trustees of the Leland Stanford Junior …, priority 2013, dated 2018).
